Experimental data as given in US5593970A, “Heterocyclic anthracycline analogs” (priority 1994, dated 1997).
Like-named read-outs stand apart in the source and are kept apart here.

Legend:
LS180 = assay: Soft agar colony formation disk diffusion assay; type: cell-based, human
Summary of the method: (§1)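 Cells in 0.4% Noble agar top layer over 0.8% agar base; compound in DMSO/water applied on 6.5 mm filter disk. Incubated 37 °C, 5% CO2 for 10–20 days. Activity measured as inhibition zone from disk edge to nearest colonies (>50 cells), by ocular micrometer.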

MCF7 = assay: Soft agar colony formation disk diffusion assay; type: cell-based, human
Summary of the method: as §1

MCF7/ADR = assay: Soft agar colony formation disk diffusion assay; type: cell-based, human
Summary of the method: as §1

SKOV3 = assay: Microculture tetrazolium assay; type: cell-based; conditions: read-out: IC50
HT29 = assay: Microculture tetrazolium assay; type: cell-based; conditions: read-out: IC50
MATB.WT = assay: Soft agar colony formation disk diffusion assay; type: cell-based, rat
Summary of the method: (§2)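 Cells from solid tumours or ascitic fluid (murine lines maintained in vivo, assayed in vitro) were suspended in 0.4% Noble agar over a 0.8% agar base. Compound dissolved in DMSO was applied on a 6.5 mm paper disk. After 10-20 days at 37° C., the inhibition zone from disk edge to nearest colony was measured microscopically.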

MATB/ADR = assay: Soft agar colony formation disk diffusion assay; type: cell-based, rat
Summary of the method: as §2

LOX = assay: Microculture tetrazolium assay; type: cell-based; conditions: read-out: IC50
SKVLB = assay: Microculture tetrazolium assay; type: cell-based; conditions: for VLB/OV3: IC50 ratio SKVLB/SKOV3; for IC50: SKVLB, read-out: IC50
T47D = assay: Microculture tetrazolium assay; type: cell-based; conditions: read-out: IC50
tumor cell lines = assay: NCI sulforhodamine B assay, all cell lines; conditions: Homo sapiens

Row | Compound | IC50 (SKOV3; SKOV3) [µM] | IC50 (HT29; HT29) [µM] | IC50 (LOX) [µM] | IC50 (SKVLB) [µM] | IC50 (T47D) [µM] | IC50 (SKOV3; Homo sapiens, SK-OV-3, SKOV3) [µM] | IC50 (HT29; Homo sapiens, HT-29, HT29) [µM] | IC50 (T47D; Homo sapiens) [µM] | zone of inhibition (LS180; 10 μg/DISK) [Zone Units] | zone of inhibition (LS180; 100 μg/DISK) [Zone Units] | zone of inhibition (MCF7; 10 μg/DISK) [Zone Units] | zone of inhibition (MCF7; 100 μg/DISK) [Zone Units] | zone of inhibition (MCF7/ADR; 10 μg/DISK) [Zone Units] | zone of inhibition (MCF7/ADR; 100 μg/DISK) [Zone Units] | zone of inhibition (MATB.WT; 10 μg/DISK) [Zone Units] | zone of inhibition (MATB.WT; 100 μg/DISK) [Zone Units] | zone of inhibition (MATB/ADR; 10 μg/DISK) [Zone Units] | zone of inhibition (MATB/ADR; 100 μg/DISK) [Zone Units] | VLB/OV3 (SKVLB) | also measured
1 | 3-Carbomethoxy-1,11-dihydroxy-1,2,3,4-tetrahydro-(2-oxygen)naphthacene-5,12-dione 3-Carbomethoxy-1,6-dihydroxy-1,2,3,4-tetrahydro-(2-oxygen)naphthacene-5,12-dione [BCH-711] | 11.1 | 5.68 | 11.5 | 13.5 | 12.4 |  |  |  | 18.0 ± 16.9 | 182.5 ± 43.1 | 0 | 244.0 ± 17.2 | 24.4 ± 8.5 | 222.4 ± 159.2 | 27.0 ± 4.2 | 137.0 ± 21.2 | 45.5 ± 21.9 | 107.0 ± 21.9 | 1.22 | cross resistance with adriamycin, MATB/ADR vs MATB.WT (MATB/ADR): greater cytotoxicity in the resistant breast tumor cell line
2 | CCOC(=O)C1CC2=C(CO1)C(=O)c1cc3ccccc3c(O)c1C2=O (stereo not drawn) [BCH-653, Ethyl(6 and 11 hydroxy-5,12-dioxo-3,4,5,12-tetrahydro-anthraceno[2,3-c]pyran-3-yl)]formate] |  |  |  |  |  |  |  |  |  | 35.5 ± 0.7 |  | 106.1 ± 21.5 |  | 91.5 ± 43.1 |  | 0 |  | 0 |  | CC50 (tumor cell lines; 48 h, read-out: Log10 LC50, Mean / MG-MID, all cell lines (converted)): 100 µM; IC100 (tumor cell lines; 48 h, read-out: Log10 TGI, Mean / MG-MID, all cell lines): 100 µM; GI50 (tumor cell lines; read-out: Log10 GI50, Mean / MG-MID, all cell lines (converted)): 42.7 µM
3 | CCOC(=O)C1CC2=C(CO1)C(=O)c1c(c(O)c3ccccc3c1OC(C)=O)C2=O (stereo not drawn) [BCH-654, Ethyl[11-acetoxy-6-hydroxy-5,12-dioxo-3,4,5,12-tetrahydroanthraceno(2,3-c)pyran-3-yl]formate] |  |  | 70.5 | 57.1 |  | 98.4 | 47.3 | > 100 | 24.4 ± 8.6 | 158.5 ± 9.1 | 0 | 115.9 ± 8.6 | 0 | 155.6 ± 12.7 | 0 | 152.5 ± 25.8 | 0 | 134.3 ± 17.3 | 0.58 | 
4 | CC(=O)Oc1c2c(c(O)c3ccccc13)C(=O)C1=C(C2=O)C(O)OC(C(C)=O)C1 (stereo not drawn) [BCH-704, Methyl(11-acetoxy-1,6-dihydroxy-5,12-dioxo-3,4,5,12-tetrahydroanthraceno[2,3-c]pyran-3-yl)ketone] |  |  | 28.3 | 13.8 |  | 16.4 | 10.7 | 11.8 | 38.3 ± 2.4 | 131.1 ± 31.1 | 183.0 ± 10.8 | 320.5 ± 21.5 | 122.0 ± 25.8 | 323.0 ± 16.8 | 198.5 ± 21.9 | 414.8 ± 25.8 | 320.2 ± 64.7 | 527.4 ± 72.9 | 0.84 | cross resistance with adriamycin, MATB/ADR vs MATB.WT (MATB/ADR): greater cytotoxicity in the resistant breast tumor cell line

Continued, in another order:

Row | IC50 (SKOV3; SKOV3) [µM] | IC50 (HT29; HT29) [µM] | IC50 (LOX) [µM] | IC50 (SKVLB) [µM] | IC50 (T47D) [µM] | IC50 (SKOV3; Homo sapiens, SK-OV-3, SKOV3) [µM] | IC50 (HT29; Homo sapiens, HT-29, HT29) [µM] | IC50 (T47D; Homo sapiens) [µM] | Compound | zone of inhibition (LS180; 10 μg/DISK) [Zone Units] | zone of inhibition (LS180; 100 μg/DISK) [Zone Units] | zone of inhibition (MCF7; 10 μg/DISK) [Zone Units] | zone of inhibition (MCF7; 100 μg/DISK) [Zone Units] | zone of inhibition (MCF7/ADR; 10 μg/DISK) [Zone Units] | zone of inhibition (MCF7/ADR; 100 μg/DISK) [Zone Units] | zone of inhibition (MATB.WT; 10 μg/DISK) [Zone Units] | zone of inhibition (MATB.WT; 100 μg/DISK) [Zone Units] | zone of inhibition (MATB/ADR; 10 μg/DISK) [Zone Units] | zone of inhibition (MATB/ADR; 100 μg/DISK) [Zone Units] | VLB/OV3 (SKVLB) | also measured
5 | 41.6 | 18.9 | 48 | 44.2 | 16.3 |  |  |  | 3-carbomethoxy-6-hydroxy-1,2,3,4-tetrahydro-(2-sulfur)naphthacene-5,12-dione and 3-carbomethoxy-11-hydroxy-1,2,3,4-tetrahydro(2-sulfur)naphthacene-5,12-dione [BCH-693] | 0 | 39.6 ± 4.3 | 0 | 67.1 ± 34.5 | 24.4 ± 17.2 | 67.1 ± 25.8 | 0 | 42.7 ± 8.8 | 0 | 67.1 ± 8.6 | 1.06 | 
6 |  |  | 3.89 | 1.77 |  | 2.84 | 2.18 | 71 | COC(=O)[C@H]1CC2=C(C(=O)c3c(cc4ccccc4c3O)C2=O)[C@H](O[C@H]2C[C@H](NC(=O)C(F)(F)F)[C@H](O)[C@H](C)O2)O1 (mixture of isomers) [BCH-692, (1'S,1S,3R) and (1'S,1R,3S) Methyl[11-hydroxy-1-(2',3',6'-trideoxy-3'-trifluoroacetamido-4'-hydroxy-L-lyxohexopyranose)-5,12-dioxo-3,4,5,12-tetrahydro-anthraceno[2,3-c]pyran-3-yl]formate] | 130.0 ± 12.5 | 250.0 ± 8.4 | 131.0 ± 12.7 | 289.5 ± 22.0 | 122.0 ± 10.0 | 237.9 ± 8.6 | 150.0 ± 18.5 | 400.5 ± 100.0 | 0 | 180.0 ± 50.5 | 0.62 | cross resistance with adriamycin, MCF7/ADR vs MCF7 (MCF7/ADR): lack of cross resistance with adriamycin
7 |  |  | 1.37 | 1.41 |  | 1.27 | 0.301 | 2.25 | COC(=O)[C@@H]1CC2=C(C(=O)c3c(cc4ccccc4c3O)C2=O)[C@@H](O[C@H]2C[C@H](NC(=O)C(F)(F)F)[C@H](O)[C@H](C)O2)O1 [BCH-691, (1'S,1R,3S)-Methyl-{11-hydroxy-1-(2',3',6'-trideoxy-3'-trifluoroacetamido-4'-hydroxy-L-lyxoheoxpyranose)-5,12-dioxo-3,4,5,12-tetrahydroanthraceno[2,3-c]pyran-3-yl}formate] | 148.5 ± 4.9 | 287.0 ± 80.3 | 186.5 ± 4.9 | 417.5 ± 99.7 | 115.5 ± 9.1 | 213.5 ± 43.1 | 120.0 ± 50.5 | 380.0 ± 120.0 | 0 | 200.0 ± 95.0 | 1.11 | 
8 |  |  | > 100 | > 100 |  | > 100 | > 100 | > 100 | CCOC(=O)C1Cc2c(c(OC)c3c(c2OC)C(=O)c2ccccc2C3=O)CS1 (stereo not drawn) [BCH-717] | 0 | 61.0 ± 0.0 | 0 | 0 | 0 | 0 | 0 | 0 | 0 | 0 |  | 
9 | 55.8 | 23.4 | 24.9 | 30.7 | 47.8 |  |  |  | CC(=O)Oc1c2c(c(O)c3ccccc13)C(=O)C1=C(CC(C(C)=O)OC1)C2=O (stereo not drawn) [BCH-721] | 18.9 | 122.0 ± 0.0 | 55.0 ± 8.4 | 167.0 ± 21.9 | 91.0 ± 86.2 | 183.0 ± 86.2 | 33.0 ± 4.2 | 143.0 ± 12.7 | 45.5 ± 21.9 | 137.0 ± 21.2 | 0.55 | 
